Source: the NIST ThermoML archive (doi:10.1021/je800100m)
± gives the expanded uncertainty stated by the source.

What was measured:
[1] = Liquid; for speed of sound: 101.3 kPa, Sing-around technique in a fixed-path interferometer; for mass density: 101.33 kPa, Pycnometric method
[2] = xn = mol fraction of the nth substance listed; details: 308.15 K, 101 kPa, Liquid, Sing-around technique in a fixed-path interferometer

Cc1ccccc1C [1,2-dimethylbenzene]
[1], 298.15 K
Details | mass density [kg/m3] | speed of sound [m/s]
– | 875.99 ± 5.6 | 1344 ± 5.4

Cc1ccc(C)cc1 [1,4-dimethylbenzene]
[1], 298.15 K
Details | mass density [kg/m3] | speed of sound [m/s]
– | 856.58 ± 5.3 | 1310.1 ± 5.4

Cc1ccccc1N [2-methylaniline]
[1]
Details | mass density [kg/m3] | speed of sound [m/s]
298.15 K | 994.28 ± 7.2 | –
308.15 K | – | 1603 ± 5

Cc1ccccc1N [2-methylaniline] + Cc1ccc(C)cc1
[2]
Details | speed of sound [m/s]
x1 = 0.0534 | 1287 ± 5
x1 = 0.1009 | 1295 ± 5
x1 = 0.1707 | 1308 ± 5
x1 = 0.2483 | 1325 ± 5
x1 = 0.32 | 1342 ± 5
x1 = 0.3949 | 1361 ± 5
x1 = 0.4559 | 1378 ± 5
x1 = 0.5332 | 1402 ± 5
x1 = 0.6007 | 1423 ± 5
x1 = 0.6897 | 1455 ± 5
x1 = 0.7417 | 1475 ± 5
x1 = 0.8009 | 1500 ± 5
x1 = 0.8668 | 1530 ± 5
x1 = 0.9374 | 1567 ± 5

Cc1ccccc1N [2-methylaniline] + Cc1ccccc1
[2]
Details | speed of sound [m/s]
x1 = 0.0457 | 1270 ± 5
x1 = 0.0998 | 1283 ± 5
x1 = 0.1516 | 1296 ± 5
x1 = 0.2017 | 1308 ± 5
x1 = 0.2773 | 1327 ± 5
x1 = 0.3496 | 1346 ± 5
x1 = 0.407 | 1359 ± 5
x1 = 0.4797 | 1381 ± 5
x1 = 0.5882 | 1414 ± 5
x1 = 0.6667 | 1440 ± 5
x1 = 0.7464 | 1470 ± 5
x1 = 0.8033 | 1494 ± 5
x1 = 0.8647 | 1523 ± 5
x1 = 0.9223 | 1554 ± 5

Cc1ccccc1N [2-methylaniline] + Cc1ccccc1C
[2]
Details | speed of sound [m/s]
x1 = 0.0799 | 1325 ± 5
x1 = 0.1313 | 1328 ± 5
x1 = 0.1977 | 1333 ± 5
x1 = 0.2507 | 1338 ± 5
x1 = 0.3003 | 1345 ± 5
x1 = 0.3663 | 1355 ± 5
x1 = 0.4456 | 1370 ± 5
x1 = 0.508 | 1385 ± 5
x1 = 0.5892 | 1408 ± 5
x1 = 0.6666 | 1434 ± 5
x1 = 0.7287 | 1459 ± 5
x1 = 0.7884 | 1485 ± 5
x1 = 0.8314 | 1505 ± 5
x1 = 0.909 | 1547 ± 5

Cc1ccccc1 [toluene]
[1], 298.15 K
Details | mass density [kg/m3] | speed of sound [m/s]
– | 862.21 ± 5.4 | 1304.6 ± 5.4
